Measured values reported in PubChem BioAssay AID2060502 (Molecular Pharmacology Branch, DTP, NCI, 2025).
Where “and” joins values, the source holds several entries; their conditions need not be identical. Equal entries are not always repeated.

Tested on: 885724-159-R-J1-PDC complex spheroid viability
Test: Anticancer human tumor 885724-159-R-J1-PDC patient-derived pancreatic adenocarcinoma cell line growth inhibition [GQUAD]
Conditions: for viability, T/C: stronger effect = lower value
Source text: DNA G-quadruplex Stabilizer Agents in Combinations in Complex Spheroids
A high-throughput screen of multi-cell type tumor spheroids was designed to identify active combinations of DNA G-quadruplex stabilizer agents and targeted small molecules. Complex spheroids include a stromal component modeled by human endothelial cells (HUVEC) and fibroblasts modeled by human mesenchymal stem cells (MSCs). The concentration ranges selected for each drug and investigational agent were based upon clinically achievable concentrations if the clinical Cmax of the agent was known.
Compounds. The drugs and investigational agents: pidnarulex (CX-5461; NSC782164), APTO-253 (NSC789042), BRACO-19 (NSC847499), peposertib (NSC802822), ceralasertib (NSC780249), elimusertib (NSC800525), camonsertib (NSC841442), AZD-1390 (NSC803789), olaparib (NSC753686), talazoparib (NSC767125), ART-558 (NSC835418), sotorasib (NSC818433), MRTX-1133 (NSC836407), SN-38 (NSC673596), topotecan (NSC609699), etoposide (NSC141540), doxorubicin (NSC123127), gemcitabine (NSC613327), 5-fluorouracil (NSC19893), paclitaxel (NSC125973), vemurafenib (NSC761431), panobinostat (NSC761190), R-306465 (JNJ-16241199; NSC773264), adavosertib (NSC754352), TP-3654 (NSC805149), carboplatin (NSC241240), KSQ-4279 (NSC840948), and staurosporine (NSC755774) were obtained from the National Cancer Institute (NCI) Developmental Therapeutics Program Chemical Repository (34). The FDA-approved anticancer drug set is available from the NCI Developmental Therapeutics Program. […] The stock solutions were prepared in dimethyl sulfoxide (DMSO, Sigma-Aldrich, St. Louis, MO, cat. D2650) at 800-fold the tested concentration and stored at -70 degrees C prior to their use. All drugs and investigational agents were tested over a range starting from a high concentration at or near the clinical Cmax and decreasing in half-log increments. If the clinical Cmax for an agent had not been determined, the highest concentration tested was 10 microM.
2.3 Cell Culture. All cells were maintained in an incubator at 37 degrees C and 5% CO2 with 95% humidity. The PDC lines were cultured according to standard operating procedures established by the NCI PDMR. All PDCs were thawed and cultured in Matrigel-coated flasks prepared with a working solution of 1X Ham's F-12 nutrient mix, without supplementation (Invitrogen, cat. 11765054), 100 U/mL penicillin-streptomycin (Invitrogen, cat. 15140122), and 2.5% Matrigel (Corning Inc., cat. 354248) for the first three passages. The 857933-349-R-J2-PDC line was cultured in 6C/Colon 1B media, which includes advanced DMEM/F-12 (Thermo Fisher Scientific, cat. 12634028), 10 mM HEPES (Thermo Fisher Scientific, cat. 15630080), 1X GlutaMAX supplement (Thermo Fisher Scientific, cat. 35050061), 0.1 mg/mL primocin (InvivoGen, cat. ant-pm-2), 10% defined fetal bovine serum, heat inactivated (HyClone Laboratories Inc., cat. SH30070.03HI), 50% L-WRN conditioned media (ATCC, cat. CRL-3276), 1.25 mM N-Acetyl-L-cysteine (Sigma-Aldrich, cat. A9165), 10 mM nicotinamide (Sigma-Aldrich, cat. N0636), 1X B-27 supplement (Thermo Fisher Scientific, cat. 17504044), 1X N-2 supplement (Thermo Fisher Scientific, cat. 17502048), 10 microM Y-27632 dihydrochloride (Tocris Bioscience, cat. 1254), and 50 ng/mL human EGF recombinant protein (Thermo Fisher Scientific, cat. PHG0311). The 485176-168-R4-J1-PDC line was cultured in Panc media, which includes all 6C/Colon 1B media components plus 100 ng/mL human FGF-10 (Thermo Fisher Scientific, cat. 100-26), 500 nM SB-431542 (Selleckchem, cat. S1067), and gastrin (Tocris, cat. 3006).
[…]
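Also: spheroids exposed to agents for seven days before readout.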
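For viability, T/C in this document: percent of vehicle control viability where 100% = DMSO wells.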

For CC(C)n1c(=O)n(C)c2cnc3cc(F)c(-c4ccc(OCCCN5CCCCC5)nc4)cc3c21, the viability, T/C (compound 0.0316 µM) was 102% (2×) and 106%, the viability, T/C (compound 0.1 µM) was 100% and 103% and 96.6% and the viability, T/C (compound 0.316 µM) was 83.3% and 94.1% and 102%. For the same compound, the viability, T/C (compound 1 µM) was 107% and 108% and 86.7%, the viability, T/C (compound 3.16 µM) was 95.5% and 86.1% and 102% and the viability, T/C (compound 10 µM) was 87.7% and 68.2% and 77.4%. For the same compound, the IC50 (curve of compound) was > 10000 nM.

Work on CC(C)(O)C1CCC(Nc2ccc3ncc(-c4cccc(C(F)(F)F)c4)n3n2)CC1 (centres undefined) + Cc1[nH]c2ccc(F)cc2c1-c1nc2c3cccnc3c3ncccc3c2[nH]1 yielded an IC50 (curve of first compound, second compound 0.0316 µM) of 2500 nM, an IC50 (curve of first compound, second compound 0.1 µM) of 2760 nM and an IC50 (curve of first compound, second compound 0.316 µM) of 1520 nM. The IC50 (curve of first compound, second compound 1 µM) was 538 nM, the IC50 (curve of first compound, second compound 3.16 µM) was < 31.6 nM and the IC50 (curve of first compound, second compound 10 µM) was 1030 nM. For the same compound, the viability, T/C (second compound 0.0316 µM, first compound 0.0316 µM) was 96.3%, the viability, T/C (second compound 0.0316 µM, first compound 0.1 µM) was 93.1% and the viability, T/C (second compound 0.0316 µM, first compound 0.316 µM) was 83.1%. For the same compound, the viability, T/C (second compound 0.0316 µM, first compound 1 µM) was 84.6%, the viability, T/C (second compound 0.0316 µM, first compound 3.16 µM) was 37.3% and the viability, T/C (second compound 0.0316 µM, first compound 10 µM) was 44.7%. It also gave a viability, T/C (second compound 0.1 µM, first compound 0.0316 µM) of 97.1%, a viability, T/C (second compound 0.1 µM, first compound 0.1 µM) of 91.6% and a viability, T/C (second compound 0.1 µM, first compound 0.316 µM) of 77.4%. For the same compound, the viability, T/C (second compound 0.1 µM, first compound 1 µM) was 72.1%, the viability, T/C (second compound 0.1 µM, first compound 3.16 µM) was 41.4% and the viability, T/C (second compound 0.1 µM, first compound 10 µM) was 41.2%. The viability, T/C (second compound 0.316 µM, first compound 0.0316 µM) was 90.5%, the viability, T/C (second compound 0.316 µM, first compound 0.1 µM) was 78.3% and the viability, T/C (second compound 0.316 µM, first compound 0.316 µM) was 82.8%. The viability, T/C (second compound 0.316 µM, first compound 1 µM) was 55.5%, the viability, T/C (second compound 0.316 µM, first compound 3.16 µM) was 40.7% and the viability, T/C (second compound 0.316 µM, first compound 10 µM) was 38.3%. The viability, T/C (second compound 1 µM, first compound 0.0316 µM) was 77%, the viability, T/C (second compound 1 µM, first compound 0.1 µM) was 58.2% and the viability, T/C (second compound 1 µM, first compound 0.316 µM) was 57.2%. For the same compound, the viability, T/C (second compound 1 µM, first compound 1 µM) was 47.6%, the viability, T/C (second compound 1 µM, first compound 3.16 µM) was 33.8% and the viability, T/C (second compound 1 µM, first compound 10 µM) was 29.6%. It also gave a viability, T/C (second compound 3.16 µM, first compound 0.0316 µM) of 19.3%, a viability, T/C (second compound 3.16 µM, first compound 0.1 µM) of 8.78% and a viability, T/C (second compound 3.16 µM, first compound 0.316 µM) of 9.83%. The viability, T/C (second compound 3.16 µM, first compound 1 µM) was 9.8%, the viability, T/C (second compound 3.16 µM, first compound 3.16 µM) was 7.07% and the viability, T/C (second compound 3.16 µM, first compound 10 µM) was 7.05%. It also gave a viability, T/C (second compound 10 µM, first compound 0.0316 µM) of 67.9%, a viability, T/C (second compound 10 µM, first compound 0.1 µM) of 59% and a viability, T/C (second compound 10 µM, first compound 0.316 µM) of 57.7%. It also gave a viability, T/C (second compound 10 µM, first compound 1 µM) of 50.5%, a viability, T/C (second compound 10 µM, first compound 3.16 µM) of 28.2% and a viability, T/C (second compound 10 µM, first compound 10 µM) of 35.4%.
